Water-solubility data for one molecule are collected here from patent publication US12279616B2, “Stabilization of dimpropyridaz suspensions by triethylammonium chloride” (BASF SE, priority 2019, dated 2025).

The data set is described as follows: Water-solubility of dimpropyridaz. In kind it is physicochemical. The conditions noted are these: printed as at 20° C. ... at 25° C. As to the method: Dimpropyridaz is a pesticide that has a water-solubility at 20° C. of approximately 4-5 wt % at 25° C. The water-solubility of dimpropyridaz is comparably high and so Ostwald-ripening represents a crucial issue for Dimpropyridaz suspension concentrates.

As for `CCN(C(=O)c1cnn(C(C)C(C)C)c1C)c1ccnnc1` (racemic) [Dimpropyridaz, 1-[1,2-dimethylpropyl]-N-ethyl-5-methyl-N-pyridazin-4-yl-1H-pyrazole-4-carboxamide], the water-solubility is reported as 4-5 wt %.
